PMC9230201, “Sustained Consumption of a Decaffeinated Green Coffee Nutraceutical Has Limited Effects on Phenolic Metabolism and Bioavailability in Overweight/Obese Subjects” (Nutrients, 2022)
Values joined by “and” are separate entries in the source; they are usually repeats but may differ in a detail not shown here. Equal entries are not always repeated.

Test: Urinary excretion of phenolic metabolites after intake of the GCPE nutraceutical
Settings: for Cumulative urinary excretion, Total 0–24 h / Urinary excretion: urine; for Cumulative urinary excretion, Total 0–24 h: mean ± SEM, n = 9

Compound | Cumulative urinary excretion, Total 0–24 h (week 0) | Cumulative urinary excretion, Total 0–24 h (week 8) | Amount excreted in urine, 0- 3 h (week 0, interval 0–3 h) | Amount excreted in urine, 3-6 h (week 0, interval 3–6 h) | Amount excreted in urine, 6-9 h (week 0, interval 6–9 h) | Amount excreted in urine, 9-11 h (week 0, interval 9–11 h) | Amount excreted in urine, 0- 3 h (week 8, interval 0–3 h) | Amount excreted in urine, 3-6 h (week 8, interval 3–6 h) | Amount excreted in urine, 6-9 h (week 8, interval 6–9 h) | Amount excreted in urine, 9-11 h (week 8, interval 9–11 h) | Amount excreted in urine, 11-24 h (week 0, interval 11–24 h) | Amount excreted in urine, 11-24 h (week 8, interval 11–24 h) | Cumulative urinary excretion, Total 0–24 h (week 0, listed as coumaroylquinic acid) | Cumulative urinary excretion, Total 0–24 h (week 8, listed as coumaroylquinic acid) | Urinary excretion (week 0) | Urinary excretion (week 8)
O=C(/C=C/c1ccc(O)c(O)c1)O[C@@H]1C[C@](O)(C(=O)O)C[C@@H](O)[C@H]1O [3-Caffeoylquinic acid] | 0.21 ± 0.05 µmol | 0.18 ± 0.03 µmol | 0.11 ± 0.02 µmol | 0.08 ± 0.03 µmol | 0.022 ± 0.009 µmol | 0.003 ± 0.002 µmol | 0.1 ± 0.02 µmol | 0.045 ± 0.008 µmol | 0.028 ± 0.007 µmol | 0.008 ± 0.005 µmol |  |  |  |  |  | 
COc1cc(CCC(=O)OC2CC(O)(C(=O)O)CC(O)C2O)ccc1O (centres unmarked) [3-Dihydroferuloylquinic acid] | 0.3 ± 0.1 µmol | 0.5 ± 0.07 µmol | 0.05 ± 0.01 µmol | 0.034 ± 0.006 µmol | 0.029 ± 0.006 µmol | 0.019 ± 0.005 µmol | 0.11 ± 0.02 µmol | 0.062 ± 0.008 µmol | 0.08 ± 0.01 µmol | 0.08 ± 0.02 µmol | 0.16 ± 0.09 µmol | 0.14 ± 0.02 µmol |  |  |  | 
O=C(O)CCc1ccc(OS(=O)(=O)O)cc1 [DHCoA-4′-sulfate, 3-(Phenyl)propanoic acid-4′-sulfate] | 21 ± 6 µmol | 21 ± 4 µmol | 0.9 ± 0.4 µmol | 0.7 ± 0.1 µmol | 3 ± 1 µmol | 3 ± 1 µmol | 2 ± 0.8 µmol | 1.5 ± 0.5 µmol | 5 ± 2 µmol | 5 ± 2 µmol | 12 ± 4 µmol | 7 ± 3 µmol |  |  |  | 
O=C(/C=C/c1ccc(O)c(O)c1)OC1[C@H](O)CC(O)(C(=O)O)C[C@H]1O (some centres unmarked) [4-Caffeoylquinic acid] | 0.13 ± 0.07 µmol | 0.15 ± 0.07 µmol |  |  | 0.03 ± 0.02 µmol | 0.05 ± 0.04 µmol | 0.01 ± 0.01 µmol | 0.008 ± 0.005 µmol | 0.06 ± 0.03 µmol | 0.05 ± 0.03 µmol | 0.05 ± 0.02 µmol | 0.02 ± 0.01 µmol |  |  |  | 
O=C(CCc1ccc(O)c(O)c1)OC1C(O)CC(O)(C(=O)O)CC1O (centres unmarked) [4-Dihydrocaffeoylquinic acid] | 0.06 ± 0.02 µmol | 0.04 ± 0.02 µmol | 0.011 ± 0.004 µmol | 0.005 ± 0.002 µmol | 0.005 ± 0.002 µmol | 0.006 ± 0.002 µmol | 0.008 ± 0.004 µmol | 0.003 ± 0.002 µmol | 0.004 ± 0.002 µmol | 0.004 ± 0.003 µmol | 0.036 ± 0.008 µmol | 0.02 ± 0.01 µmol |  |  |  | 
O=C(CCc1ccc(O)c(O)c1)OC1CC(O)(C(=O)O)CC(O)C1O (centres unmarked) [3-Dihydrocaffeoylquinic acid] | 0.35 ± 0.07 µmol | 0.27 ± 0.08 µmol | 0.06 ± 0.02 µmol | 0.033 ± 0.005 µmol | 0.05 ± 0.02 µmol | 0.04 ± 0.01 µmol | 0.025 ± 0.007 µmol | 0.019 ± 0.005 µmol | 0.04 ± 0.01 µmol | 0.03 ± 0.01 µmol | 0.17 ± 0.04 µmol | 0.15 ± 0.06 µmol |  |  | 0.35 µmol/24 h | 0.27 µmol/24 h
O=C(O)CCc1ccc(O)c(O[C@@H]2O[C@H](C(=O)O)[C@@H](O)[C@H](O)[C@H]2O)c1 [DHCA-3′-glucuronide, 3-(4′-Hydroxyphenyl)propanoic acid-3′-glucuronide] | 0.6 ± 0.2 µmol | 0.5 ± 0.1 µmol | 0.09 ± 0.03 µmol | 0.07 ± 0.02 µmol | 0.08 ± 0.04 µmol | 0.04 ± 0.02 µmol | 0.11 ± 0.04 µmol | 0.06 ± 0.02 µmol | 0.08 ± 0.02 µmol |  | 0.3 ± 0.09 µmol | 0.2 ± 0.06 µmol |  |  |  | 
COc1cc(CCC(=O)OC2CC(O)(C(=O)O)CC(O)C2O)ccc1O (centres unmarked) [5-Dihydroferuloylquinic acid] | 0.3 ± 0.1 µmol | 0.18 ± 0.07 µmol | 0.12 ± 0.08 µmol | 0.023 ± 0.004 µmol | 0.027 ± 0.009 µmol | 0.013 ± 0.004 µmol | 0.08 ± 0.04 µmol | 0.021 ± 0.008 µmol | 0.03 ± 0.02 µmol | 0.008 ± 0.003 µmol | 0.1 ± 0.04 µmol | 0.04 ± 0.02 µmol |  |  |  | 
COc1cc(CCC(=O)OC2C(O)CC(O)(C(=O)O)CC2O)ccc1O (centres unmarked) [4-Dihydroferuloylquinic acid] | 0.06 ± 0.02 µmol | 0.05 ± 0.02 µmol | 0.011 ± 0.004 µmol | 0.008 ± 0.003 µmol | 0.013 ± 0.005 µmol | 0.005 ± 0.003 µmol | 0.015 ± 0.008 µmol |  | 0.011 ± 0.007 µmol | 0.003 ± 0.002 µmol | 0.019 ± 0.009 µmol | 0.009 ± 0.005 µmol |  |  |  | 
O=C(O)CCc1ccc(O)c(OS(=O)(=O)O)c1 [DHCA-3′-sulfate, 3-(4′-Hydroxyphenyl)propanoic acid-3′-sulfate] | 9 ± 2 µmol | 9 ± 3 µmol | 0.32 ± 0.07 µmol | 0.26 ± 0.07 µmol | 2.5 ± 0.9 µmol | 2 ± 0.7 µmol | 0.7 ± 0.2 µmol | 0.6 ± 0.2 µmol | 2.5 ± 0.6 µmol | 3 ± 1 µmol | 4 ± 1 µmol | 2 ± 1 µmol |  |  |  | 
O=C(/C=C/c1ccc(O)c(O)c1)O[C@@H]1C[C@@](O)(C(=O)O)C[C@@H](O)[C@@H]1O [5-Caffeoylquinic acid] | 0.33 ± 0.06 µmol | 0.33 ± 0.04 µmol | 0.18 ± 0.04 µmol | 0.12 ± 0.04 µmol | 0.03 ± 0.01 µmol | 0.004 ± 0.002 µmol | 0.18 ± 0.04 µmol | 0.08 ± 0.01 µmol | 0.033 ± 0.008 µmol | 0.009 ± 0.007 µmol |  | 0.006 ± 0.006 µmol |  |  |  | 

Results, then the compound that gave them:

Cumulative urinary excretion, Total 0–24 h (week 0) | Cumulative urinary excretion, Total 0–24 h (week 8) | Amount excreted in urine, 0- 3 h (week 0, interval 0–3 h) | Amount excreted in urine, 3-6 h (week 0, interval 3–6 h) | Amount excreted in urine, 6-9 h (week 0, interval 6–9 h) | Amount excreted in urine, 9-11 h (week 0, interval 9–11 h) | Amount excreted in urine, 0- 3 h (week 8, interval 0–3 h) | Amount excreted in urine, 3-6 h (week 8, interval 3–6 h) | Amount excreted in urine, 6-9 h (week 8, interval 6–9 h) | Amount excreted in urine, 9-11 h (week 8, interval 9–11 h) | Amount excreted in urine, 11-24 h (week 0, interval 11–24 h) | Amount excreted in urine, 11-24 h (week 8, interval 11–24 h) | Cumulative urinary excretion, Total 0–24 h (week 0, listed as coumaroylquinic acid) | Cumulative urinary excretion, Total 0–24 h (week 8, listed as coumaroylquinic acid) | Urinary excretion (week 0) | Urinary excretion (week 8) | Compound
2.1 ± 0.3 µmol | 1.9 ± 0.3 µmol | 0.17 ± 0.06 µmol | 0.1 ± 0.03 µmol | 0.26 ± 0.09 µmol | 0.28 ± 0.07 µmol | 0.23 ± 0.09 µmol | 0.16 ± 0.05 µmol | 0.56 ± 0.2 µmol | 0.4 ± 0.1 µmol | 1.3 ± 0.2 µmol | 1 ± 0.1 µmol |  |  |  |  | O=C(O)CCc1ccc(O[C@@H]2O[C@H](C(=O)O)[C@@H](O)[C@H](O)[C@H]2O)cc1 [DHCoA-4′-glucuronide, 3-(Phenyl)propanoic acid-4′-glucuronide]
0.44 ± 0.04 µmol | 0.6 ± 0.1 µmol | 0.04 ± 0.01 µmol | 0.035 ± 0.009 µmol | 0.08 ± 0.02 µmol | 0.11 ± 0.01 µmol | 0.13 ± 0.05 µmol | 0.1 ± 0.02 µmol | 0.12 ± 0.04 µmol | 0.06 ± 0.02 µmol | 0.16 ± 0.03 µmol | 0.17 ± 0.05 µmol |  |  |  |  | COc1ccc(/C=C/C(=O)NCC(=O)O)cc1O [IsoFeruloylglicine]
0.14 ± 0.03 µmol | 0.10 ± 0.02 µmol | 0.03 ± 0.01 µmol | 0.015 ± 0.003 µmol | 0.017 ± 0.006 µmol | 0.015 ± 0.004 µmol | 0.009 ± 0.003 µmol |  | 0.014 ± 0.002 µmol | 0.012 ± 0.004 µmol | 0.06 ± 0.02 µmol | 0.06 ± 0.02 µmol | 0.14 µmol | 0.10 µmol |  |  | Coumaroylquinic acid
 |  |  |  |  |  | 0.03 µmol and 0.017 µmol | 0.009 µmol and 0.01 µmol |  |  | 0.12 µmol and 0.14 µmol | 0.09 µmol and 0.12 µmol |  |  | 0.22 µmol/24 h | 0.17 µmol/24 h | Dihydrocoumaroylquinic acid
3.7 ± 0.5 µmol | 4.4 ± 0.8 µmol | 1.2 ± 0.3 µmol | 0.7 ± 0.2 µmol | 0.8 ± 0.2 µmol | 0.21 ± 0.06 µmol | 1.2 ± 0.2 µmol | 0.6 ± 0.1 µmol | 0.9 ± 0.3 µmol | 0.7 ± 0.3 µmol | 0.9 ± 0.2 µmol | 1 ± 0.3 µmol |  |  |  |  | O=C(O)/C=C/c1ccc(O)c(OS(=O)(=O)O)c1 [CA-3′-sulfate, 4′Hydroxycinnamic acid-3′-sulfate]
1.1 ± 0.3 µmol | 2.1 ± 0.9 µmol | 0.4 ± 0.1 µmol | 0.07 ± 0.04 µmol | 0.24 ± 0.08 µmol | 0.09 ± 0.03 µmol | 0.34 ± 0.07 µmol | 0.1 ± 0.03 µmol | 0.32 ± 0.06 µmol | 0.3 ± 0.1 µmol | 0.4 ± 0.1 µmol | 1 ± 0.7 µmol |  |  |  |  | COc1ccc(C=CC(=O)O)cc1OS(=O)(=O)O [iFA-3′-sulfate, 4′-Methoxycinnamic acid-3′-sulfate]
